“Also recorded” adds a separate entry of the source.
Columns and labels:
endometriotic lesions [1] = experiment: Endometriosis model in rhesus macaques: uterus weight and weights/size of endometrial lesions after 60 days of treatment; assay type: in vivo
Experimental: (§1) The activity of the mineralcorticoid receptor antagonist spironolactone was tested in an endometriosis model in non-human primates. Non-human primates are the only species apart from man where endometriosis occurs spontaneously under natural conditions. They are therefore the most relevant model for examining this disorder. […] In this procedure, the animals are given a depot for estradiol substitution which keeps the serum level at 80 to 100 pg/ml. In this manner, it is ensured that the endometriotic lesions are exposed to physiological concentrations of estradiol. By virtue of the depot, interindividual variations of the hormone concentrations and their effect on the results can be excluded. After the treatment, the size of the endometrium lesions was determined, and the proliferation of these lesions was detected by a histological analysis. […] In an autologous transplantation, a plurality of lesions from endometrium tissue were implanted subcutaneously and intraperitoneally/abdominally into rhesus macaques.

endometriotic lesions [2] = experiment: Rate of proliferation of endometrial lesions in the rhesus macaque endometriosis model (Ki67 staining, BrDU incorporation); assay type: in vivo, rhesus macaques; conditions: abdominal lesions, secretory cells; 60 days spironolactone vs control; FIG. 3
Experimental: as §1, with “Accordingly, the mineralcorticoid receptor antagonist spironolactone has” for “In an autologous transplantation,”, “positive effect on endometriosis genesis.” for “plurality of lesions from endometrium tissue were implanted subcutaneously and intraperitoneally/abdominally into rhesus macaques.”
Examination of the rate of proliferation of endometrial lesions in an endometriosis model in rhesus macaques after treatment with spironolactone.
Both detection of cell division in the endometriotic lesions by Ki67 (top row) and by incorporation of BrDU (bottom row) show a reduced value in the animals treated with spironolactone (control, left, compared to spironolactone, right).

[3] = after 60 days of treatment, macaque model, n = 4

SMILES	Intraabdominal lesion wt (endometriotic lesions [1]; [3])	Subcutaneous lesion wt (endometriotic lesions [1]; [3]) [g]	Uterus wt (endometriotic lesions [1]; [3]) [g]	proliferation in the lesions by bromodeoxyuridine (BrDU) incorporation (endometriotic lesions [2])	proliferation in the lesions by staining of the mitotic antigen Ki67 (endometriotic lesions [2])	size of the endometriotic lesions compared to control animals (endometriotic lesions [1]; 60 days estradiol + spironolactone 30 mg/kg/day vs estradiol control)	effect on the uterus as such (endometriotic lesions [1]; 60 days estradiol + spironolactone vs estradiol control)	weight of subcutaneous and intraperitoneal/abdominal lesions after treatment (in words) (endometriotic lesions [1]; 60 days estradiol + spironolactone vs estradiol control, both types of lesions)
C[C@]12CC[C@@H]3c4ccc(O)cc4CC[C@H]3[C@@H]1CC[C@@H]2O [E2, estradiol]	0.068 + 0.11 g	0.039 ± 0.008	3.75 ± 0.496					
CC(=O)S[C@@H]1CC2=CC(=O)CC[C@]2(C)[C@H]2CC[C@@]3(C)[C@@H](CC[C@@]34CCC(=O)O4)[C@H]12 [spironolactone]				reduction of proliferation; also recorded: strongly reduced; also recorded: reduced value	reduction of proliferation; also recorded: strongly reduced; also recorded: reduced value	significant reduction of the endometriotic lesions	no significant effect	reduction in weight

Reference: patent US20110003778A1, “MINERALCORTICOID RECEPTOR ANTAGONISTS FOR THE TREATMENT OF ENDOMETRIOSIS” (Bayer Schering Pharma Aktiengesellschaft, priority 2007, published 2011)
